Results as given in ChEMBL document CHEMBL1201862, “PubChem BioAssay data set” (2004).
Activity calls are given as the source filed them.

Assays:
[1] = StAR promoter reporter inhibition counter-screen, dose response, counter-screen for LRH-1 inverse agonist project, cell-based, luminescence, luciferase reporter (AID 651969); format: functional
[2] = biological target: Nuclear receptor subfamily 5 group A member 2 (Homo sapiens, UniProt O00482); format: functional, cell-based;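 further: HEK293T cells transfected with LRH-1 and a StAR promoter luciferase reporter; potency for inhibitors that lower LRH-1 driven reporter light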
Steroidogenic factor 1 = Steroidogenic factor 1 (Homo sapiens, UniProt Q13285); assay: Counterscreen for inverse agonists of the liver receptor homolog-1 (LRH-1; NR5A2): Luminescence-based cell-based high throughput dose response assay to identify inverse agonists of the Steroidogenic Factor 1 Nuclear Receptor (SF1; NR5A1).; format: functional
[3] = biological target: T1, Adenosylmethionine-8-amino-7-oxononanoate aminotransferase (Mycobacterium tuberculosis, UniProt P9WQ81); assay: Mycobacterium tuberculosis BioA enzyme inhibitor Measured in Biochemical System Using Plate Reader - 2163-02_Inhibitor_Dose_CherryPick_Activity.; format: functional, Mycobacterium tuberculosis UT205
T1 sequence (P9WQ81 whole entry): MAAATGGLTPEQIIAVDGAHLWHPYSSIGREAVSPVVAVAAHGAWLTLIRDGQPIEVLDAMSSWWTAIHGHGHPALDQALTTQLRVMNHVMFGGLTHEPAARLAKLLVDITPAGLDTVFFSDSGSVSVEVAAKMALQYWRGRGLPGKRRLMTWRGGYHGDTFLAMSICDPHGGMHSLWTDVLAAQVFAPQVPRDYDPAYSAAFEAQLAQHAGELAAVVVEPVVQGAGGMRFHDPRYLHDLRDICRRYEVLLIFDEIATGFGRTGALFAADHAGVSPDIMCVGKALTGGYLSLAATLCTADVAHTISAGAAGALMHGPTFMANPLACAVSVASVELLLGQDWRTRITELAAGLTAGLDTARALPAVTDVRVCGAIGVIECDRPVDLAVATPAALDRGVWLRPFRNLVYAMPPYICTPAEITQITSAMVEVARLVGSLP

[4] = biological target: Photoreceptor-specific nuclear receptor (Homo sapiens, UniProt Q9Y5X4); format: functional, cell-based;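 further: CHO-S cells with Gal4-NCOR and VP16-NR2E3 two-hybrid luciferase reporter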
[5] = test system: Streptococcus sp. 'group A'; assay: growth inhibition of control SK(-) GAS strain, dose response, counter-screen for streptokinase expression inhibitor project, luminescence, kanamycin, BacTiterGlo, confirmation (AID 1900); format: functional, organism-based
Streptococcus = assay: Group A Streptococcus viability loss, dose response, counter-screen for streptokinase expression inhibitor project, luminescence, BacTiterGlo (AID 1915); format: functional, organism-based;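 further: potency for reduction of bacterial viability or growth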
Beta-galactosidase = Beta-galactosidase (Escherichia coli, UniProt Q8VNN2); assay: beta-galactosidase enzyme inhibitors and activators, dose response, artefact control for CCR6 antagonist project, biochemical, E. coli enzyme, set 3 (AID 504712); format: functional
[6] = biological target: Ras and Rab interactor 1/Tyrosine-protein kinase ABL1 (Homo sapiens, UniProt P00519+Q13671); format: functional;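 further: biochemical TR-FRET dose-response test measuring inhibition of binding between Rin1 and Abl proteins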
Chain of Ras and Rab interactor 1/Tyrosine-protein kinase ABL1 (P00519 whole entry): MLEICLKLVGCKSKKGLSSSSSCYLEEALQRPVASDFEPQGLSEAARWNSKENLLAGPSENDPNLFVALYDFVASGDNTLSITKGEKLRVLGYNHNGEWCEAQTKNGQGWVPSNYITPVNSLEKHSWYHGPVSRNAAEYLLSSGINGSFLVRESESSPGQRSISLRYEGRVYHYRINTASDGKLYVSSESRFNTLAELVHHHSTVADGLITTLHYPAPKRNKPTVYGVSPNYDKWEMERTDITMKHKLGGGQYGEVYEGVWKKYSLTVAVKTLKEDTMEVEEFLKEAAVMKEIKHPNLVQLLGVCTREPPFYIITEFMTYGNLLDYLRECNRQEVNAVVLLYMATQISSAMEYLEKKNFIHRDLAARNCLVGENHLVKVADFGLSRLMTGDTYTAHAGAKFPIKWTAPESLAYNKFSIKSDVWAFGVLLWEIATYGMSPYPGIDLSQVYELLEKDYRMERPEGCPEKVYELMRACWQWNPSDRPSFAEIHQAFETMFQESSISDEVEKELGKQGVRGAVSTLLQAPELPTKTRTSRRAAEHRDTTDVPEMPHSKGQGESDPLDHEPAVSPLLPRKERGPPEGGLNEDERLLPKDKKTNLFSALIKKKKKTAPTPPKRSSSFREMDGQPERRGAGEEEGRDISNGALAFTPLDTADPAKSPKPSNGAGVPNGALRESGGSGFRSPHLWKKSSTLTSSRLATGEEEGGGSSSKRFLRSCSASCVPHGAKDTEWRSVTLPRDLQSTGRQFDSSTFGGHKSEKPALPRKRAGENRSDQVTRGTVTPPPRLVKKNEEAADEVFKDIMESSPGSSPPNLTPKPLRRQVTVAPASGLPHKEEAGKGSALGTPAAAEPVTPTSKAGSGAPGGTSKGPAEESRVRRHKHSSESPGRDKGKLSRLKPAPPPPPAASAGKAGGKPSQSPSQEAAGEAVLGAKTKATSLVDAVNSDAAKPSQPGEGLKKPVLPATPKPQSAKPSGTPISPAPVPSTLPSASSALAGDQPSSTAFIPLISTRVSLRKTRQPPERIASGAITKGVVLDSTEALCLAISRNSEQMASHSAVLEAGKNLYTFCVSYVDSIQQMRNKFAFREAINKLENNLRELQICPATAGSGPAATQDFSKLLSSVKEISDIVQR
Chain of Ras and Rab interactor 1/Tyrosine-protein kinase ABL1 (Q13671 whole entry): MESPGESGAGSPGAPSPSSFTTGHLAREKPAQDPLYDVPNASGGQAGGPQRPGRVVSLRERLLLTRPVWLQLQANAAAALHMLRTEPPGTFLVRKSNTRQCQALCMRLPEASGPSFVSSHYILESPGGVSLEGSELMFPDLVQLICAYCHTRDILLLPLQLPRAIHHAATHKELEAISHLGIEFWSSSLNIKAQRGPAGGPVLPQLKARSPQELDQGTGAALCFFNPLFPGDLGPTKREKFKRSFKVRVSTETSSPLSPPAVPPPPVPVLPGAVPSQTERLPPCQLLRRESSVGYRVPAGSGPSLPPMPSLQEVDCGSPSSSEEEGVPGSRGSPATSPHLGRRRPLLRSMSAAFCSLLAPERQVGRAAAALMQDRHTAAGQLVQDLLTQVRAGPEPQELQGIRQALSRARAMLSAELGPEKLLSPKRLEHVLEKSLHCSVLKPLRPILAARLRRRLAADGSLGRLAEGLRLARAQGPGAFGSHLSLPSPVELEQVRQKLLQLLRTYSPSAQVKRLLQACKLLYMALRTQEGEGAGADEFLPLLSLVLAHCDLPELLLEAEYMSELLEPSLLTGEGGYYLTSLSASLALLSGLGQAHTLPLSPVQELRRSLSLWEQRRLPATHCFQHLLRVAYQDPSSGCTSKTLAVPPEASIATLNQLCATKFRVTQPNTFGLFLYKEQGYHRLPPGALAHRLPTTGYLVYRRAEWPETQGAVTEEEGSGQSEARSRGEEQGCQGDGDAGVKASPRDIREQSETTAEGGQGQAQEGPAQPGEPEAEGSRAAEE

Chain of Steroidogenic factor 1 (Q13285 whole entry): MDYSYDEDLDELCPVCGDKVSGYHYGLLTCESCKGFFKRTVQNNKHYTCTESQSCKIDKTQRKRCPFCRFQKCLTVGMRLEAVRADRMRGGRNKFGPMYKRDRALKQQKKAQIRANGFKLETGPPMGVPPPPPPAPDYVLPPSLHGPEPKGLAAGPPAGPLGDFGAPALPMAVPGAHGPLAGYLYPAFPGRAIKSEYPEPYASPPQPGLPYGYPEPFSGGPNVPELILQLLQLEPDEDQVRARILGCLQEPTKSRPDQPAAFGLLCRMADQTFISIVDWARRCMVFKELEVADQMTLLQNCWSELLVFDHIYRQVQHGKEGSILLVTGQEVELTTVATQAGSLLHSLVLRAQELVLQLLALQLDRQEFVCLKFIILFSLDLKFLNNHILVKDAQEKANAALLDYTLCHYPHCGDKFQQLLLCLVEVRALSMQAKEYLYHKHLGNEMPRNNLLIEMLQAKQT
Chain of Nuclear receptor subfamily 5 group A member 2 (O00482 whole entry): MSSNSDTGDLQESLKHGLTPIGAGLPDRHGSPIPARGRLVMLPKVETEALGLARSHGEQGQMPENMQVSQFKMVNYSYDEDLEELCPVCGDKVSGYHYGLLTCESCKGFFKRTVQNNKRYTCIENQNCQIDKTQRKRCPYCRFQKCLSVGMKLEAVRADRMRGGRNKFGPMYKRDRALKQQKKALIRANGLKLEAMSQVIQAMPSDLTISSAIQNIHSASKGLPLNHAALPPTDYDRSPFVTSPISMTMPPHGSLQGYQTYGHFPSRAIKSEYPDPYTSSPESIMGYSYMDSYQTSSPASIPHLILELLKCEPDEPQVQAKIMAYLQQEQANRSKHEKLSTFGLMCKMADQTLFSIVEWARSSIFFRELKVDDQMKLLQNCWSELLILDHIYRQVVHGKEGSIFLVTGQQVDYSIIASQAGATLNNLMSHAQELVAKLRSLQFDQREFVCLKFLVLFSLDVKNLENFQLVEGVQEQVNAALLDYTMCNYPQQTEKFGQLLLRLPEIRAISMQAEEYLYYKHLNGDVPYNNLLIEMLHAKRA
Chain of Photoreceptor-specific nuclear receptor (Q9Y5X4 whole entry, the tested form may be a part): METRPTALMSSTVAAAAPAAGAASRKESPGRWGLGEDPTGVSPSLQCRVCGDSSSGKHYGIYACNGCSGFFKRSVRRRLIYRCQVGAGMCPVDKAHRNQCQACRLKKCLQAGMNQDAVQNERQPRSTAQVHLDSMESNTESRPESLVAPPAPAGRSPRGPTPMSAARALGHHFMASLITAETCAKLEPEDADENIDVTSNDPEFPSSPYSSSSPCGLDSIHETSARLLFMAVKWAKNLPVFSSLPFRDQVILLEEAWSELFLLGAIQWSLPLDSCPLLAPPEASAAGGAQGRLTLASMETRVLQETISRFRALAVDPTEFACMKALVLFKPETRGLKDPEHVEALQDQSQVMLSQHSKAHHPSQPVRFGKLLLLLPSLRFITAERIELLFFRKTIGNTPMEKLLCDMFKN
Chain of Beta-galactosidase (Q8VNN2 whole entry): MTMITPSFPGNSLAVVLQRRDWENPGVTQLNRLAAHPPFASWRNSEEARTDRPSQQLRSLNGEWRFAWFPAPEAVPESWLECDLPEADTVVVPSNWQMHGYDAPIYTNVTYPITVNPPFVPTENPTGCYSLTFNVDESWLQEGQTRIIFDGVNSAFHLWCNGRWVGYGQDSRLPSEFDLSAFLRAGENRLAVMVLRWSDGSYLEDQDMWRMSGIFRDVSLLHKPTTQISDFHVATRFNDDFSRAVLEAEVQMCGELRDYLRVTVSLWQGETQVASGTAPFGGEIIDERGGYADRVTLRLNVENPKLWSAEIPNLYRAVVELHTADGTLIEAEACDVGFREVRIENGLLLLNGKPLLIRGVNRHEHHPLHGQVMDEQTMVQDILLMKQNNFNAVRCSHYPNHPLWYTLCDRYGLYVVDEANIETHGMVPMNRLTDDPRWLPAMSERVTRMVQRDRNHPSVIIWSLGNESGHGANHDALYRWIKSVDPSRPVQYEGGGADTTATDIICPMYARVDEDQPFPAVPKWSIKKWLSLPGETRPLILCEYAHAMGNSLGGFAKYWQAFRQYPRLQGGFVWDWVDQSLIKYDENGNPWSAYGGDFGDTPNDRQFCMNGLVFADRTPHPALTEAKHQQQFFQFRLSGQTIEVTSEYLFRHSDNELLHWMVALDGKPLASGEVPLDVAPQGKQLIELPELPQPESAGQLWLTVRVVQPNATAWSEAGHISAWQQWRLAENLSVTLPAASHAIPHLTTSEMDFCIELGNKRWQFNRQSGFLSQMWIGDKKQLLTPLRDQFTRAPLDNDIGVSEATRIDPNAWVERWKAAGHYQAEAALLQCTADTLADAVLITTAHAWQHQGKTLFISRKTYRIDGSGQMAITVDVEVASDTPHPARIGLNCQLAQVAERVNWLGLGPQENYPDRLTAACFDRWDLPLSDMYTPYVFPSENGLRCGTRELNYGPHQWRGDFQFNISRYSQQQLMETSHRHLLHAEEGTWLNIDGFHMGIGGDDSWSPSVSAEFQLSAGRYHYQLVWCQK

## COC(=O)c1ccc(CNC(=O)COC(=O)c2cc(Cl)nc(Cl)c2)cc1
[1]
  IC50: 35.9 µM (inactive)
[2]
  IC50: 12 µM (inactive)
Steroidogenic factor 1
  IC50: 12 µM (inactive)

## CCOc1ccc(NC(=O)COC(=O)CC2CCCCC2)cc1
[1]
  IC50: 35.9 µM (inactive)
[2]
  IC50: 35.9 µM (inactive)
Steroidogenic factor 1
  IC50: 35.9 µM (inactive)

## Cc1ccc(Cc2c(C)nc3nc(SCC(=O)NCCN4CCOCC4)nn3c2C)cc1
[3]
  AC50: 12.6 µM (active)

## COCCNC(=O)C[C@@H]1CC[C@@H]2[C@@H](COc3ccc(NC(=O)Nc4cccc(F)c4)cc3C(=O)N2C)O1
[3]
  AC50: 10.8 µM (active)

## O=C(CN1C(=O)C(c2ccc(F)cc2)=NC12CCCC2)Nc1ccc(F)cc1
[4]
  IC50: 2.93 µM (active)

## Cc1ccc(Cc2cnc(N3C(=N)SC(C)C3=O)s2)cc1 (stereo unspecified)
[5]
  EC50: 574 nM (active)
Streptococcus
  EC50: 3.44 µM (active)
[4]
  IC50: 1.89 µM (active)
Beta-galactosidase
  IC50: > 66.6 µM (inactive)

## CC1CN(C(=O)Nc2ccc3snnc3c2)c2ccccc21 (stereo unspecified)
[3]
  AC50: 0.212 µM (active)

## O=C1CNC(=O)N1CC(O)Cn1c2ccccc2c2ccccc21 (stereo unspecified)
[6]
  IC50: 11.9 µM (inactive)

## O=C(c1cc(COc2cccc3cccnc23)on1)N1CCC[C@H]1CO
[6]
  IC50: 2.94 µM (active)
